# Reference: patent US6737383B1, “Herbicidal oxadiazolidines” (priority 1999, dated 2004)
# Experiments:
# corn = assay: Test B pre/postemergence corn; assay type: in vivo, Zea mays
# Procedure, shortened: (§1)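 Herbicidal effect was estimated by eye on a ten-point control scale after plants spent twelve to sixteen days in a greenhouse following soil or foliar treatment. Foliar sprays targeted plants at one to four leaves; all doses were formulated in a non-phytotoxic solvent with surfactant.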
# crabgrass = assay: Test B pre/postemergence crabgrass; assay type: in vivo, Digitaria sanguinalis
# Procedure, shortened: as §1
# surinam grass = assay: Test B pre/postemergence surinam grass; assay type: in vivo, Brachiaria decumbens
# Procedure, shortened: as §1
# cocklebur = assay: Test B pre/postemergence cocklebur; assay type: in vivo, Xanthium strumarium
# Procedure, shortened: as §1
# [1] = Postemergence, Rate 62 g/ha, scale 0 to 10, 0 is no effect, 10 is complete control
# [2] = Postemergence, Rate 250 g/ha, scale 0 to 10, 0 no effect, 10 complete control
# [3] = Preemergence, Rate 31 g/ha, visual rating, scale 0 to 10 (0 no effect, 10 complete control)
# [4] = Preemergence, Rate 62 g/ha, scale 0 to 10, 0 is no effect, 10 is complete control
# [5] = Preemergence, Rate 125 g/ha, scale 0 to 10 (0 no effect, 10 complete control)
# [6] = Preemergence, Rate 250 g/ha, scale of 0 to 10 where 0 is no effect and 10 is complete control
# [7] = Rate 31 g/ha, Postemergence, scale 0 to 10
# [8] = Rate 125 g/ha, Postemergence, scale 0 to 10, 0 no effect, 10 complete control
# [9] = Preemergence, Rate 62 g/ha, scale of 0 to 10 where 0 is no effect and 10 is complete control
# [10] = Preemergence, Rate 125 g/ha, 0 is no effect, 10 is complete control
# [11] = Preemergence, Rate 250 g/ha, scale 0 to 10, 0 is no effect, 10 is complete control
# [12] = Preemergence, Rate 500 g/ha, scale of 0 to 10 where 0 is no effect and 10 is complete control
# [13] = Rate 62 g/ha, Postemergence, scale of 0 to 10 where 0 is no effect and 10 is complete control
# [14] = Rate 125 g/ha, Postemergence, scale 0 to 10
# [15] = Rate 500 g/ha, Postemergence, scale 0 to 10
# [16] = Rate 125 g/ha, Postemergence, scale 0 (no effect) to 10 (complete control)
# [17] = Rate 500 g/ha, Postemergence, scale 0 to 10, 0 no effect, 10 complete control
# [18] = Rate 125 g/ha, Preemergence, scale of 0 to 10 where 0 is no effect and 10 is complete control
# [19] = Postemergence, Rate 250 g/ha, scale 0 to 10
# [20] = Postemergence, Rate 500 g/ha, scale of 0 to 10 where 0 is no effect and 10 is complete control
# [21] = Preemergence, Rate 125 g/ha, scale of 0 to 10 where 0 is no effect and 10 is complete control
# [22] = Preemergence, Rate 500 g/ha, scale 0 to 10, 0 is no effect, 10 is complete control
# [23] = Rate 62 g/ha, Postemergence, scale 0 to 10 (0 no effect, 10 complete control)
# [24] = Rate 125 g/ha, Postemergence, scale 0 to 10, 0 is no effect, 10 is complete control
smiles,measurement,setting,value
COc1ccc(-n2c(=O)on(C(=O)N(c3ccc(F)cc3F)C(C)C)c2=O)c(OC)c1 [Compound 32],Corn plant response rating,corn; [1],0
same,Corn plant response rating,corn; [2],0
same,Corn plant response rating,corn; [3],0
same,"Plant response rating, Corn",corn; [4],0
same,"Plant response rating, Corn",corn; [5],0
same,"Plant response rating, Corn",corn; [6],0
same,Corn plant response rating,corn; [7],0
same,Corn plant response rating,corn; [8],0
same,Crabgrass plant response rating,crabgrass; [1],0
same,Crabgrass plant response rating,crabgrass; [2],3
same,Crabgrass plant response rating,crabgrass; [3],0
same,"Plant response rating, Crabgrass",crabgrass; [4],4
same,"Plant response rating, Crabgrass",crabgrass; [5],6
same,"Plant response rating, Crabgrass",crabgrass; [6],9
same,Crabgrass plant response rating,crabgrass; [7],0
same,Crabgrass plant response rating,crabgrass; [8],2
same,B. signalgrass plant response rating,surinam grass; [1],0
same,B. signalgrass plant response rating,surinam grass; [2],0
same,B. signalgrass plant response rating,surinam grass; [3],0
same,"Plant response rating, B. signalgrass",surinam grass; [4],0
same,"Plant response rating, B. signalgrass",surinam grass; [5],0
same,"Plant response rating, B. signalgrass",surinam grass; [6],2
same,B. signalgrass plant response rating,surinam grass; [7],0
same,B. signalgrass plant response rating,surinam grass; [8],0
same,Cocklebur plant response rating,cocklebur; [1],0
same,Cocklebur plant response rating,cocklebur; [2],0
same,Cocklebur plant response rating,cocklebur; [3],0
same,"Plant response rating, Cocklebur",cocklebur; [4],0
same,"Plant response rating, Cocklebur",cocklebur; [5],0
same,"Plant response rating, Cocklebur",cocklebur; [6],0
same,Cocklebur plant response rating,cocklebur; [7],0
same,Cocklebur plant response rating,cocklebur; [8],0
CC(C)N(C(=O)n1oc(=O)n(Cc2ccco2)c1=O)c1ccc(Cl)cc1 [Compound 206],Corn plant response rating,corn; [9],0
same,Corn plant response rating (0 to 10 scale),corn; [10],0
same,Corn plant response rating,corn; [11],0
same,"Plant response rating, Corn",corn; [12],0
same,Corn plant response rating,corn; [13],0
same,Corn plant response rating,corn; [14],0
same,"Plant response rating (0 to 10; 0 is no effect, 10 is complete control), Corn","corn; Rate 250 g/ha, Postemergence",0
same,Corn plant response rating,corn; [15],0
same,Crabgrass plant response rating,crabgrass; [9],0
same,Crabgrass plant response rating (0 to 10 scale),crabgrass; [10],0
same,Crabgrass plant response rating,crabgrass; [11],3
same,"Plant response rating, Crabgrass",crabgrass; [12],8
same,Crabgrass plant response rating,crabgrass; [13],0
same,Crabgrass plant response rating,crabgrass; [14],0
same,"Plant response rating (0 to 10; 0 is no effect, 10 is complete control), Crabgrass","crabgrass; Rate 250 g/ha, Postemergence",0
same,Crabgrass plant response rating,crabgrass; [15],0
same,B. signalgrass plant response rating,surinam grass; [9],0
same,B. signalgrass plant response rating (0 to 10 scale),surinam grass; [10],0
same,B. signalgrass plant response rating,surinam grass; [11],0
same,"Plant response rating, B. signalgrass",surinam grass; [12],0
same,B. signalgrass plant response rating,surinam grass; [13],0
same,B. signalgrass plant response rating,surinam grass; [16],0
same,"Plant response rating, B. signalgrass","surinam grass; Rate 250 g/ha, Postemergence, scale 0 to 10, 0 is no effect, 10 is complete control",0
same,B. signalgrass plant response rating,surinam grass; [17],0
same,Cocklebur plant response rating,cocklebur; [9],0
same,Cocklebur plant response rating (0 to 10 scale),cocklebur; [10],0
same,Cocklebur plant response rating,cocklebur; [11],0
same,"Plant response rating, Cocklebur",cocklebur; [12],0
same,Cocklebur plant response rating,cocklebur; [13],0
same,Cocklebur plant response rating,cocklebur; [14],0
same,"Plant response rating (0 to 10; 0 is no effect, 10 is complete control), Cocklebur","cocklebur; Rate 250 g/ha, Postemergence",0
same,Cocklebur plant response rating,cocklebur; [15],0
CON=C(Cn1c(=O)on(C(=O)N(c2ccc(F)cc2)C(C)C)c1=O)C(F)(F)F [Compound 227],Corn plant response rating,corn; [9],0
same,Corn plant response rating,corn; [6],0
same,"Plant response rating, Corn",corn; [12],0
same,Corn plant response rating,corn; [13],0
same,Corn plant response rating,corn; [14],0
same,Corn plant response rating,corn; [18],0
same,"Plant response rating (0 to 10; 0 is no effect, 10 is complete control), Corn","corn; Rate 250 g/ha, Postemergence",0
same,Corn plant response rating,corn; [17],0
same,Crabgrass plant response rating,crabgrass; [9],1
same,Crabgrass plant response rating,crabgrass; [6],10
same,"Plant response rating, Crabgrass",crabgrass; [12],10
same,Crabgrass plant response rating,crabgrass; [13],0
same,Crabgrass plant response rating,crabgrass; [14],0
same,Crabgrass plant response rating,crabgrass; [18],10
same,"Plant response rating (0 to 10; 0 is no effect, 10 is complete control), Crabgrass","crabgrass; Rate 250 g/ha, Postemergence",0
same,Crabgrass plant response rating,crabgrass; [17],3
same,B. signalgrass plant response rating,surinam grass; [9],0
same,B. signalgrass plant response rating,surinam grass; [11],0
same,"Plant response rating, B. signalgrass",surinam grass; [12],2
same,B. signalgrass plant response rating,surinam grass; [13],0
same,B. signalgrass plant response rating,surinam grass; [16],0
same,B. signalgrass plant response rating,surinam grass; [18],0
same,"Plant response rating (0 to 10; 0 is no effect, 10 is complete control), B. signalgrass","surinam grass; Rate 250 g/ha, Postemergence",0
same,B. signalgrass plant response rating,surinam grass; [17],0
same,Cocklebur plant response rating,cocklebur; [9],0
same,Cocklebur plant response rating,cocklebur; [6],0
same,"Plant response rating, Cocklebur",cocklebur; [12],0
same,Cocklebur plant response rating,cocklebur; [13],0
same,Cocklebur plant response rating,cocklebur; [14],0
same,Cocklebur plant response rating,cocklebur; [18],0
same,"Plant response rating (0 to 10; 0 is no effect, 10 is complete control), Cocklebur","cocklebur; Rate 250 g/ha, Postemergence",2
same,Cocklebur plant response rating,cocklebur; [17],3
CC(C)N(C(=O)n1oc(=O)n(CC(=O)N(C)C)c1=O)c1ccc(F)cc1F [Compound 440],Corn plant response rating,corn; [19],0
same,Corn plant response rating,corn; [20],0
same,"Plant response rating, Corn",corn; [9],0
same,"Plant response rating, Corn",corn; [21],0
same,Corn plant response rating,corn; [11],0
same,Corn plant response rating,corn; [22],0
same,Corn plant response rating,corn; [23],0
same,Corn plant response rating,corn; [24],0
same,Crabgrass plant response rating,crabgrass; [19],9
same,Crabgrass plant response rating,crabgrass; [20],9
same,"Plant response rating, Crabgrass",crabgrass; [9],7
same,"Plant response rating, Crabgrass",crabgrass; [21],7
same,Crabgrass plant response rating,crabgrass; [11],10
same,Crabgrass plant response rating,crabgrass; [22],10
same,Crabgrass plant response rating,crabgrass; [23],1
same,Crabgrass plant response rating,crabgrass; [24],2
same,B. signalgrass plant response rating,surinam grass; [2],2
same,B. signalgrass plant response rating,surinam grass; [20],8
same,"Plant response rating, B. signalgrass",surinam grass; [9],1
same,"Plant response rating, B. signalgrass",surinam grass; [21],4
same,B. signalgrass plant response rating,surinam grass; [11],8
same,B. signalgrass plant response rating,surinam grass; [22],8
same,B. signalgrass plant response rating,surinam grass; [23],0
same,B. signalgrass plant response rating,surinam grass; [24],0
same,Cocklebur plant response rating,cocklebur; [19],0
same,Cocklebur plant response rating,cocklebur; [20],0
same,"Plant response rating, Cocklebur",cocklebur; [21],0
same,Cocklebur plant response rating,cocklebur; [11],0
same,Cocklebur plant response rating,cocklebur; [22],0
same,Cocklebur plant response rating,cocklebur; [23],0
same,Cocklebur plant response rating,cocklebur; [24],0
